The results in this text go back to patent US20230056205A1, “SUBSTITUTED 4,6-DIHYDROSPIRO[[1,2,3]TRIAZOLO[4,5-B]PYRIDINE-7,3'-INDOLINE]-2',5(3H)-DIONE ANALOGUES” (The Board of Regents of The University of Texas System, priority 2019, published 2023).

SMILES strings stand for the structures. Entries after “also recorded” stand apart in the source; their conditions may differ.

The subject of one data set is DENV-3 replicon. Description: Luciferase reporter replicon-based screening, DENV-3. Particulars: for EC50: Dengue virus, DENV3, Huh-7, 48 h, read-out: EC50 DENV-3, Huh7 cells stably expressing DENV-3 replicon, 48 h. The class given is cell-based, DENV-3 (strain D3MY05-34640). The method in brief: (§1)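 Huh7 cells carrying Renilla luciferase/neo replicons of DENV-1 (WestPac), DENV-2 (NGC), DENV-3 (D3MY05-34640) or DENV-4 (D4MY01-22713), treated with 2-fold compound dilutions for 48 h at 37 °C in duplicate. Live-cell luciferase read; EC50 by four-parameter logistic fit.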

Data set [1] addresses T1, DENV-2 viral NS4B protein (Dengue virus type 2, UniProt P14340).
T1 construct: endogenous in cells; host or cells: Huh7 cells infected with DENV-2 strain NGC (virus-encoded protein in the lysate)
Nature of the data set: Pull-down assay with biotinylated compounds. The class given is binding, DENV-2 strain NGC. The note with it: lysates of DENV-2 infected Huh7 cells, streptavidin beads, Western blot. As for the experimental part:
Pull-Down Assay. 4 × 10^6 Huh7 cells were seeded in a T-75 flask. The next day, cells were infected with DENV-2 strain NGC at a MOI of 2.0 in the presence of 10 µM compound 73 or 75. Cells treated with 0.25% DMSO were used as a control. After 48 h-incubation at 37° C., cells were harvested and lysed in 500 µL lysis buffer comprising 20 mM Tris-HCL pH 7.5, 100 mM NaCl, 0.5% DDM, and EDTA-free protease inhibitor cocktail (Roche). After removing the cell debris by centrifugation at 15000 rpm for 10 min, the lysates were mixed with corresponding compound at a final concentration of 100 µM or DMSO (0.25%) prior to incubation with 80 µL Streptavidin Magnetic Beads (ThermoFisher Scientific). After incubation at 4° C. overnight with agitation, the beads were washed 5 times with PBST buffer (PBS containing 0.1% Tween 20). The beads were finally mixed with 1 × LDS sample buffer (ThermoFisher Scientific) containing 100 mM dithiothreitol (DTT, Sigma-Aldrich) and heated at 95° C. for 10 minutes to elute the bead-associated proteins. The eluates and cell lysates were loaded onto a 12% SDS-PAGE and viral NS4B proteins were detected by a mouse monoclonal antibody according to the protocol as reported previously.^56

In another data set the test system is DENV-2 replicon. Nature of the data set: Luciferase reporter replicon-based screening, DENV-2. The class given is cell-based, DENV-2 (New Guinea C strain, NGC). The note with it: for EC50: Dengue virus, DENV2, Huh-7, 48 h, read-out: EC50 DENV-2, Huh7 cells stably expressing DENV-2 replicon, 48 h. In a few lines: as §1
A further data set deals with DENV-4 replicon. Description: Luciferase reporter replicon-based screening, DENV-4. The class given is cell-based, DENV-4 (strain D4MY01-22713). The method in brief: as §1
Another data set relates to DENV-1 replicon. Nature of the data set: Luciferase reporter replicon-based screening, DENV-1. The format is cell-based, DENV-1 (strain WestPac). The method in brief: as §1
The nature of data set [2]: Cytotoxicity assay (CellTiter-Glo). The note with it: human, Huh7 cells stably expressing DENV-2 replicon. The format is cell-based. The method in brief: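 Huh7 or Huh7 replicon cells, seeded overnight at 37 °C, exposed to 2-fold serial dilutions of compound for 48 h in duplicate. Viability by CellTiter-Glo, normalised to 0.45% DMSO wells (100%); CC50 by four-parameter logistic regression.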

A further data set in a line: in vivo. The format is in vivo, male SD rats. As for the experimental part: In Vivo PK Studies. The PK profiles of compound 15 were determined in male SD rats following intravenous (i.v.) and oral (p.o.) administration of 10 and 20 mg/kg, respectively. The formulations used for i.v. and p.o. were solution in DMSO: 20% HP-β-CD in saline = 1:9. IV bolus injection, animal number N = 3; dose level: 10 mg/kg; sample collection time points: 5 min, 15 min, 30 min, 1 h, 2 h, 4 h, 8 h, 24 h; PO: animal number N = 3; fasting 12 h, dose level: 20 mg/kg; sample collection time points: 15 min, 30 min, 1 h, 2 h, 4 h, 8 h, 24 h. Plasma concentrations of compound 15 were measured by API-4000/5500 LC-MS/MS with 8 point standard curve and 6 QCs. Pharmacokinetic parameters were calculated by a non-compartmental approach using WinNonLin software.

A further data set deals with DENV-2 strain NGC. Nature of the data set: Viral titer reduction assay, DENV-2 strain NGC. The note with it: Dengue virus, DENV2, Huh-7; viral titer reduction assay on Huh7 cells. The format is cell-based. Here is the method: Viral Titer Reduction Assay. Huh7 cells were seeded in a 96-well plate. The next day, cells were infected with DENV-2 strains NGC or D2Y98P at a MOI of 0.3 in the presence of 2-fold serial dilutions of compounds. Experiments were performed in triplicates. After incubation at 37° C. for 48 h, cell culture fluids were harvested. The infectious viruses in the culture fluids were determined by plaque assay using a protocol as described previously.^48 The EC50 values were calculated using four parameter logistic regression in GraphPad software Prism 8.0.

Data set [3] has as its system P12 resistant DENV-2 viruses (NS4B V63M or V63L). The class given is cell-based, DENV-2 strain NGC.
Where [4] appears, read: at the concentration up to 10 µM (data not shown).

In the case of `C[C@@H](c1ccc(Cl)cc1)n1nnc2c1NC(=O)C[C@@]21C(=O)N(CCOC(=O)CCCCCCCNC(=O)CCCC[C@@H]2SC[C@@H]3NC(=O)N[C@@H]32)c2ccc(Cl)cc21` [Compound 75, 2-((S)-5'-Chloro-3-((S)-1-(4-chlorophenyl)ethyl)-2',5-dioxo-3,4,5,6-tetrahydrospiro[[1,2,3]triazolo[4,5-b]pyridine-7,3'-indolin]-1'-yl)ethyl 8-(5-((3aS,4S,6aR)-2-oxohexahydro-1H-thieno[3,4-d]imidazol-4-yl)pentanamido)octanoate], the “remains active against DENV-3” value in the data set with DENV-3 replicon (FIG. 1B) is recorded as “not”. The “pull down of / association with viral NS4B protein” value in data set [1] is recorded as “not”. The “remains active against DENV-2” value in the data set on DENV-2 replicon (FIG. 1B) was “not”.
As to `C[C@@H](c1ccc(Cl)cc1)n1nnc2c1NC(=O)C[C@]21C(=O)N(CCOC(=O)CCCCCCCNC(=O)CCCC[C@@H]2SC[C@@H]3NC(=O)N[C@@H]32)c2ccc(Cl)cc21` [Compound 73, 2-((R)-5'-Chloro-3-((S)-1-(4-chlorophenyl)ethyl)-2',5-dioxo-3,4,5,6-tetrahydrospiro[[1,2,3]triazolo[4,5-b]pyridine-7,3'-indolin]-1'-yl)ethyl 8-(5-((3aS,4S,6aR)-2-oxohexahydro-1H-thieno[3,4-d]imidazol-4-yl)pentanamido)octanoate], the EC50 was 17 nM in the data set with DENV-3 replicon and 41 nM with DENV-2 replicon. Further, the “activity against DENV-4” value in the data set on DENV-4 replicon (setting [4]) is listed as “no significant activity”. The “pull down of / association with viral NS4B protein” value in data set [1] is listed as “can pull down viral NS4B protein; also recorded: associated with DENV-2 viral NS4B protein”. In the data set on DENV-1 replicon (setting [4]), the “activity against DENV-1” value is reported as “no significant activity”.
Take `CC(C)CCN1C(=O)[C@]2(CC(=O)Nc3c2nnn3[C@@H](C)c2ccc(Cl)cc2)c2cc(Cl)ccc21` [Compound 15, (R)-5'-Chloro-3-((S)-1-(4-chlorophenyl)ethyl)-1'-isopentyl-4,6-dihydrospiro[[1,2,3]triazolo[4,5-b]pyridine-7,3'-indoline]-2ʹ,5(3H)-dione]: the EC50 was 35 nM in the data set with DENV-3 replicon; roughly 100 nM with DENV-2 strain NGC; greater than 5000 nM in the data set on DENV-4 replicon (Dengue virus, DENV4, Huh-7, 48 h, read-out: EC50 DENV-4); 780 nM in the data set with DENV-1 replicon (Dengue virus, DENV1, Huh-7, 48 h, read-out: EC50 DENV-1); 2000 nM in [3] (viral reduction assay on Huh7 cells, read-out: EC50 against resistant viruses P12-VI); 160 nM in the data set with DENV-2 replicon. The same compound yielded a CC50 at 48 h in [2] greater than 10000 nM. The “AUC0- ∞” value in the data set “in vivo” (iv 10 mg/kg, rat plasma) was 10,334 ng·h/mL; in the data set “in vivo” (po 20 mg/kg, rat plasma) it was 6,240 ng·h/mL. Also, the CL in “in vivo” (iv 10 mg/kg, rat plasma) was 13.7 mL/min/kg; in “in vivo” (po 20 mg/kg, rat plasma) it was 59.5 mL/min/kg. For the same compound, the Cmax is on record as 10,334 ng/mL in the data set “in vivo” (iv 10 mg/kg, rat plasma) and 1,517 ng/mL in the data set “in vivo” (po 20 mg/kg, rat plasma). The mean residence time (MRT) was 2.28 h in the data set “in vivo” (iv 10 mg/kg, rat plasma) and 3.46 h in the data set “in vivo” (po 20 mg/kg, rat plasma). Besides, the Vss in “in vivo” (iv 10 mg/kg, rat plasma) is on record as 2.67 L/kg; in the data set “in vivo” (po 20 mg/kg, rat plasma), 11.54 L/kg. Besides, the t½ was determined as 2.29 h in “in vivo” (iv 10 mg/kg, rat plasma) and 2.24 h in “in vivo” (po 20 mg/kg, rat plasma). In “in vivo” (male, SD, in vivo, po 20 mg/kg, rat plasma), the Tmax stood at 1 h. The bioavailability in the data set “in vivo” (male, SD, rat, in vivo, po 20 mg/kg vs iv 10 mg/kg, rats, read-out: F (absolute oral bioavailability)) worked out at 30%. Further, the “increase of viral resistance by mutation NS4B V63L” value in [3] (P12-VI virus, Huh7 cells) turned out to be 16 folds.
